According to patent US20220127298A1, “THERMOSPOROTHRIX HAZAKENSIS-DERIVED ANTIBACTERIALLY ACTIVE SUBSTANCE” (KENNAN EISEI KOGYO CO., LTD., priority 2019, published 2022):
Values after ≈ are worked out from the molar mass of the structure shown.

How the values were obtained:
[1] = system: Thermosporothrix hazakensis SK20-1^T NBRC 105916^T; experiment: Antibacterial spectrum test, paper disk assay; type: cell-based; settings: 50 μL of 1000 γ solution in methanol, YS medium, 50° C., 2 days
Description: (§1) The antibacterial activity of HK-1 was assayed using a paper disk against the following bacterial bodies.
(§2) A piece of ice out of a glycerol stock of S. griseus stored at −80° C. was planarly inoculated on the YMPD agar culture medium with a toothpick. This was incubated at 28° C. for 5 days. After the incubation, a small amount of spore was scraped off with a swab, and planarly inoculated on the YMPD culture medium. A piece of paper disk was placed on a filter paper, onto which 50 μL of a HK-1 solution adjusted to 1000 γ with methanol was dropped and dried. Then the disk was placed on the agar culture medium coated with the bacterial body. After incubation at 28° C. for 4 days, the diameter of the inhibition ring was measured.
(§3) Assays were performed in the same manner as in 3 above, except that the incubation conditions were changed to YS culture medium (see Example 1), 50° C., and 2-day period.

[2] = system: Thermosporothrix narukonensis F4^T; experiment: Antibacterial spectrum test, paper disk assay; type: cell-based; settings: 50 μL of 1000 γ solution in methanol, YS medium, 50° C., 2 days
Description: as §1, §2, §3

[3] = system: Streptomyces sp. AGRN-9; experiment: Antibacterial spectrum test, paper disk assay; type: cell-based; settings: 50 μL of 1000 γ solution in methanol, BM medium, 45° C., 2 days
Description: as §1, §2
Assays were performed in the same manner as in 3 above, except that the incubation conditions were changed to BM culture medium, 45° C., and 2-day period.

[4] = system: Bacillus subtilis NBRC 3134^T; experiment: Measurement of minimum inhibitory concentration, dilution method with liquid culture medium; type: cell-based; settings: NBRC3134, LB liquid medium, 37° C., 135 rpm, 18 hours, visual observation and OD600
Text: The minimum inhibitory concentration (MIC) is one of the antibiotic susceptibility tests, and means the minimum concentration of an antimicrobial substance at which the visible growth of a microorganism can be inhibited. In the research field, the MIC measurement is used, for example, to compare the effects of a new antibiotic substance and a conventional substance, or to examine actions on several strains, and is regarded as an important criterion for evaluating antibiotic substances. The MIC of “HK-1” which was obtained hereunder as the antibacterial active substance was measured using the dilution method with a liquid culture medium.
A piece of ice out of a glycerol stock of G. stearothermophilus stored at −80° C. was planarly inoculated on the LB agar culture medium with a toothpick. This was incubated at 60° C. for 18 hours. One (1) cm^2 of the culture medium was excavated with a toothpick, placed into a long test tube containing 10 mL of a liquid LB culture medium, and subjected to a shaking culture at 60° C., and 300 rpm, for 18 hours. The culture solution was diluted with sterile water to about McF standard No. 1.
The preparation was performed in the same manner as in 1 above, only except that the temperature was changed to 37° C.
Two (2) mg of HK-1 was weighed out into a 2 mL Eppendorf tube using an electric balance. […]

[5] = system: Geobacillus stearothermophilus ATCC 7953; experiment: Antibacterial activity test in changing pH, paper disk assay; type: cell-based; settings: 1000 γ in methanol, 50 μL on paper disk, 50° C., 18 hours
Description: Into a 50-mL Falcon tube, 20 mg of HK-1 was weighed out using an electric balance, and therein 20 mL of methanol (1000 γ) was added followed by gentle stirring. Each 3.3 mL was aliquoted to totally two 15-mL Falcon tubes. To one of them 20 μL of 1 N sodium hydroxide was added followed by gentle stirring. The pH was tested with a pH test paper. Ten (10) μL of each sample was subjected to HPLC. The HPLC analysis conditions are as follows. The stability of a compound is regarded as one of the important information for evaluating a substance. This is because, even if the external environment changes, insofar as the compound itself is stable, it can be applied in various situations, and the information leads to acquisition of biological knowledges. Therefore, the stability of the activity was examined by measuring antibacterial activities with respect to G. stearothermophilus, and B. subtilis using the solution prepared in the above “1. Antibacterial spectrum test”. (1) Each 10 mL of the (autoclave treated) LB culture medium (see Example 1) was dispensed into two long test tubes. (2) Into each long test tube, 50 μL of a commercially available G. stearothermophilus spore suspension was seeded. […] The culture medium was taken out from the incubator, and the diameter of the inhibition ring was measured with calipers (Kanon hardened stainless 150 mm).

[6] = pH stability by HPLC analysis; type: physicochemical; settings: methanol solution 1000 γ
Description: Into a 50-mL Falcon tube, 20 mg of HK-1 was weighed out using an electric balance, and therein 20 mL of methanol (1000 γ) was added followed by gentle stirring. Each 3.3 mL was aliquoted to totally two 15-mL Falcon tubes. To one of them 20 μL of 1 N sodium hydroxide was added followed by gentle stirring. The pH was tested with a pH test paper. Ten (10) μL of each sample was subjected to HPLC. The HPLC analysis conditions are as follows. Column: CAPCELL PAK Cis 5 μm, 4.6 mm 1. D×150 mm Mobile phase A: 0.1% aqueous solution of trifluoroacetic acid Mobile phase B: acetonitrile Temperature of thermostatic chamber for column: 40° C. Flow velocity: 1 mL/min UV: 254 nm Elution method: concentration gradient • 0 min to 18 min, B concentration 50% to 100% • 18.1 min to 23 min, B concentration 100% • 23.1 min to 25 min, B concentration 50%

MIC [4]: 0.78 µg/mL (≈ 0.474 µM)
SMILES: COc1cc(OOc2cc(OC)c3c(c2-c2c(O)c(Cl)c(C)c4c2C(O)c2c(Cl)c(O)cc(O)c2C4=O)C(OC2OC(C)C(O)C2O)c2c(Cl)c(OC)c(Cl)c(C)c2C3=O)c(-c2c(O)c(Cl)c(C)c3c2C(O)c2c(Cl)c(O)cc(O)c2C3=O)c2c1C(=O)c1c(C)c(Cl)c(OC)c(Cl)c1C2OC1OC(C)C(O)C1O (centres unmarked) [HK-1]
inhibition ring diameter [1]: 10.0 mm | inhibition ring diameter [2]: 10.0 mm | inhibition ring diameter [3]: 19.0 mm | inhibition ring diameter ([5]; solution with pH adjusted to 9): 22.6 mm | inhibition ring diameter ([5]; solution with pH not adjusted): 21.9 mm | pH stability (degradation peak in HPLC analysis) ([6]; pH adjusted to 9 with 1 N sodium hydroxide): stable with no recognizable degradation peak | pH stability (degradation peak in HPLC analysis) ([6]; pH not adjusted): stable with no recognizable degradation peak
